According to paper PMC12990037, “Discovery of Two Structurally Distinct Classes of Inhibitors Targeting the Nuclease MUS81 and Enhancing Efficacy of Chemotherapy in Cancer Cells” (Journal of Medicinal Chemistry, 2026):

Assays:
Assay type in all cases: cell-based
[1] = test system: U2OS cells; assay: EdU/PI cell cycle assay; details: 72 h; for cell cycle progression: 0.5 μM; for cell cycle profile: 1 μM
Procedure: Given these promising findings, we further investigated the specificity of MU262 and MU876 and potential short-term cytotoxicity. To mirror the treatment duration used in BIR and HR assays, U2OS cells were exposed to the inhibitors or siRNA for 3 days.
U2OS WT cells (300,000) were seeded in a 6-well plate; a subset of them was treated with either control siRNA or siRNA targeting MUS81. After adhesion, cells were treated with the respective inhibitors for 72 h during which CPT ([…], Sigma-Aldrich) was added for the last 16 h and 10 μM EdU (Sigma-Aldrich) was added for the last 1 h. Cells were then harvested and stained by using the Click-iT EdU Alexa Fluor 647 Flow Cytometry Assay Kit (Thermo Fisher Scientific). Finally, cells were resuspended in 1xPBS containing 5 μg/mL of propidium iodide (PI) and analyzed using a BD FACSVerse flow cytometer (Becton Dickinson) and FlowJo software (BD Life Sciences). At least 20,000 cells were used for each measurement, and experiments were performed in duplicates.

[2] = test system: U2OS cells; assay: Analysis of micronuclei; details: 48 h
Procedure: 5 Small-molecule inhibitors of MUS81 mimic the effect of siRNA-mediated MUS81 depletion in cells. (A) U2OS cells were treated with DMSO, MUS81-targeting siRNA, MU262, MU876, or their respective control analogues for 48 h. Cytochalasin B (1.25 μg/mL) was added 16 h before harvest to prevent cytokinesis. […] (B) Representative images corresponding to the selected conditions from (A). (C) U2OS and (D) HeLa cells were incubated with DMSO, the indicated inhibitors, and their respective control analogues for 48 h. Nocodazole (200 ng/mL) was added for 5 h prior to the end of treatment to arrest cells in mitosis. Mitotic cells were collected by shake-off, and telomere fragility events (TFEs) were quantified manually for each metaphase spread. At least 70 metaphase spreads were quantified per condition. n = 3; error bars represent s.d.; ***p < 0.001, ****p < 0.0001 (ordinary One-way ANOVA).
CAL51 WT and CAL51 MUS81^–/– cells were seeded in a 96-well plate 24 h before the treatment. Alternatively, cells were transfected with 30 nM siRNA (control or MUS81) for 48 h before treatment. Subsequently, cells were treated with respective inhibitors for 48 h. During the last 16 h, cytochalasin B (Sigma-Aldrich) was added to the cells at a concentration of 1.25 μg/mL. […] Images were acquired using a Nikon Eclipse fluorescence microscope and analyzed using ImageJ software.

[3] = test system: U2OS, HEK293, and CAL51; assay: Cell proliferation assay (CyQUANT), combination with cisplatin; details: cotreatment with cisplatin, 5 days
Procedure: 7 MUS81 inhibitors synergize with cisplatin to reduce cancer cell viability. (A,B) U2OS cells were treated with DMSO, MU262, or MU876 at the indicated concentrations in combination with a range of cisplatin (0–5 μM) for 96–120 h. Cell viability was assessed by the Cy-Quant assay. The survival was normalized to the DMSO-treated control. Graphs were generated in Graphpad Prism using the nonlinear regression fitting model. n ≥ 3, error bars represent s.d. (C) CAL51 WT cells were treated with DMSO, MU262, or MU876 at the indicated concentrations at each passage over 2 weeks. Cisplatin (12 μM) was added for the last 24 h before harvest. DNA damage was assessed by quantifying γH2AX foci using fluorescence microscopy and CellProfiller software. Data were visualized plotted in R software. Red markers represent the median of γH2AX foci number per nucleus; blue markers represent the percentage of cells with ≥20 γH2AX foci per nucleus. n = 3, error bars represent s.d.; ****p <0.0001 (unpaired, two-tailed t-test). TEXT PRINTED IN THE PICTURE: (C) D: γH2AX foci: 2.4 (DMSO); γH2AX foci: 59.6 (Cisplatin) | (C) MU262: γH2AX foci: 2.3 (1 μM; DMSO); γH2AX foci: 3 (2 μM; DMSO); γH2AX foci: 55.4 (1 μM; Cisplatin); γH2AX foci: 43.2 (2 μM; Cisplatin) | (C) MU876: γH2AX foci: 2.8 (0.25 μM; DMSO); γH2AX foci: 0.9 (0.5 μM; DMSO); γH2AX foci: 48.2 (0.25 μM; Cisplatin); γH2AX foci: 42.6 (0.5 μM; Cisplatin) DOUBTS OF THE COPYIST ABOUT THIS PICTURE: Panel C: the numbers in the blue markers have no measure or unit of their own printed in the picture; the axis title 'γH2AX foci' is given as the measure, but the numbers may stand for another quantity. / Panel C: 'D' is a control column with no concentration; it may not count as a substance. / Panel C: small white print on blue markers; 59.6, 55.4, 48.2, 43.2, 42.6, 2.8 and 0.9 are best readings (3, 5, 6, 8 and 9 are hard to tell apart).
CAL51 WT, CAL51 MUS81^–/–, U2OS, and HEK293 cells were seeded in a 96-well plate and treated with the respective concentration of selected inhibitors. […]

[4] = test system: CAL51 WT cells; assay: γH2AX foci after cisplatin treatment; details: compared to the DMSO controls
Procedure: 7 MUS81 inhibitors synergize with cisplatin to reduce cancer cell viability. (A,B) U2OS cells were treated with DMSO, MU262, or MU876 at the indicated concentrations in combination with a range of cisplatin (0–5 μM) for 96–120 h. Cell viability was assessed by the Cy-Quant assay. The survival was normalized to the DMSO-treated control. Graphs were generated in Graphpad Prism using the nonlinear regression fitting model. n ≥ 3, error bars represent s.d. (C) CAL51 WT cells were treated with DMSO, MU262, or MU876 at the indicated concentrations at each passage over 2 weeks. Cisplatin (12 μM) was added for the last 24 h before harvest. DNA damage was assessed by quantifying γH2AX foci using fluorescence microscopy and CellProfiller software. Data were visualized plotted in R software. Red markers represent the median of γH2AX foci number per nucleus; blue markers represent the percentage of cells with ≥20 γH2AX foci per nucleus. n = 3, error bars represent s.d.; ****p <0.0001 (unpaired, two-tailed t-test). […]
U2OS, CAL51 WT, and CAL51 MUS81^–/– cells (10,000) were seeded in a 96-well plate 24 h before the treatment. […] The γH2AX foci were detected and quantified using CellProfiler (Broad Institute of MIT and Harvard). The analyzed data were plotted in RStudio software using R programming language.

| SMILES | cell cycle progression [1] | cell cycle profile [1] | micronuclei formation [2] | enhancement of cisplatin-induced decrease of viability [3] | γH2AX foci following cisplatin treatment [4] |
| --- | --- | --- | --- | --- | --- |
| CCc1nn2c(O)c(-c3nc4ccccc4[nH]3)nnc2c1-c1ccc(F)cc1 [Compound 18, 3-(1H-Benzo[d]imidazole-2-yl)-7-ethyl-8-(4-fluorophenyl)pyrazolo[5,1-c][1,2,4]triazin-4-ol] | neither MU262 and MU876 affected the cell cycle progression | mild increase in the S phase | significantly increased micronuclei formation | further enhanced by cotreatment with both MUS81 inhibitors in a dose-dependent manner | significantly reduced the number of γH2AX foci in a concentration-dependent manner |
| Cc1cc(=O)[nH]c(-n2nc(-c3ccccc3)cc2NC(=O)c2cc(-c3ccccc3)on2)n1 [Compound 32, N-(1-(4-Methyl-6-oxo-1,6-dihydropyrimidin-2-yl)-3-phenyl-1H-pyrazol-5-yl)-5-phenylisoxazole-3-carboxamide] | neither MU262 and MU876 affected the cell cycle progression | mild increase in the S phase | significantly increased micronuclei formation | further enhanced by cotreatment with both MUS81 inhibitors in a dose-dependent manner | significantly reduced the number of γH2AX foci in a concentration-dependent manner |
